Measured values reported in article PMC2941486 (Journal of Biomedical Science, 2010).
Marks after values point to notes of the source that are not given here. Square brackets hold non-standard residues; d marks the D form. Peptide text beside a SMILES is read from it. Dopa = N[C@@H](Cc1ccc(O)c(O)c1)C(=O)O; dPhg = N[C@@H](C(=O)O)c1ccccc1

Columns and labels:
[1] = target: T1, intestinal peptide transporter I (PepT1) (Rattus norvegicus, UniProt P51574); assay: BBMV uptake of d-phenylglycine-l-dopa with or without competitors; format: in vitro ADME; conditions: pH 7.4, room temperature
T1 construct: brush-boarder membrane vesicle (BBMV) prepared from rat intestine; from tissue; host or cells: rat intestine, brush-border membrane vesicles made by magnesium precipitation
T1 sequence (P51574 1-710): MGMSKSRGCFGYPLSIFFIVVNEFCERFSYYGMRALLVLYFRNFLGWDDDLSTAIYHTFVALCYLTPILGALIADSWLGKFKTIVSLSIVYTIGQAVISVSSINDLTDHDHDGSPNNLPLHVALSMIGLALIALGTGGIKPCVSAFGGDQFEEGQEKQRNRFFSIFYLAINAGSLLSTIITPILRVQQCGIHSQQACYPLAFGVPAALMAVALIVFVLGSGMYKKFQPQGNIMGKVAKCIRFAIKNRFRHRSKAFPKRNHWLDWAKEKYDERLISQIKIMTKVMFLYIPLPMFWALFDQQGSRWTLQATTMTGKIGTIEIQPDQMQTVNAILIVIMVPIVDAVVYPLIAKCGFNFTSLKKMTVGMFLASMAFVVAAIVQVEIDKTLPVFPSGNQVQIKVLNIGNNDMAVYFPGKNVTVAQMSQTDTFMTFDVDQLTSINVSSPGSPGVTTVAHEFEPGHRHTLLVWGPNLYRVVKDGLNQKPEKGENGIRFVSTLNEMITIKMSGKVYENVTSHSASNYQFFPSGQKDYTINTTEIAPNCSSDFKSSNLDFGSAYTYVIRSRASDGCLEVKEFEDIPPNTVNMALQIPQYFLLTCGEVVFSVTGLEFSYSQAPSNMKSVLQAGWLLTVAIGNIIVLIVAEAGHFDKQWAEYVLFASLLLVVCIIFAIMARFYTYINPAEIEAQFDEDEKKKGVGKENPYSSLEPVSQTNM

[2] = Stability in rat intestinal mucosa suspension; format: in vitro ADME; conditions: pH 6.5 isotonic buffer, 37°C
Protocol: Mucosa suspension was prepared from the intestine of male Wistar rats according to established method and was stored in an ice bath before use.
The stability of d-phenylglycine-l-dopa in the intestine was determined prior to the intestinal absorption studies. In order to simulate intestinal microclimate pH, the compound was incubated with the intestinal mucosal suspension in a pH 6.5 isotonic buffer solution. l-Gly-l-Phe comprising essential amino acids degraded rapidly with only 50% of recovery after 2 min of incubation. d-Phenylglycine-l-dopa, on the other hand, was very stable with almost 100% of recovery after 90 min of incubation (Figure 3).
Figure 3 Comparison of the stability of d-phenylglycine-l-dopa and l-Gly-l-Phe in rat intestinal mucosa suspension. Each point represents mean ± SE. of 3 experiments. A methanolic solution (100 μl) of the test compound (1 mg/ml) was diluted with an isotonic mannitol buffer solution (pH 6.5, 2.4 ml) as the stock solution. This stock solution (1 ml) was mixed with the freshly prepared mucosal suspension (1 ml). The mixture was incubated in a water bath at 37°C and subjected to sampling at intervals between zero to 90 min of incubation. Each sampled solution (200 μl) was denatured with 0.8 ml of MeOH and centrifuged at 6,600 g for 5 min. Each of the supernatant (20 - 100 μl) was subjected to HPLC assay.

[3] = tested on: 6-OHDA-treated unilateral striatal-lesioned rats; conditions: 10 mg/kg
[4] = Pharmacokinetics after i.v. and oral administration; format: in vivo, Wistar rats; conditions: for AUC / half-life / clearance / Vd / Tmax: Wistar, rat, plasma, 5.97 mg/kg; for clearance: read-out: Clp; for Vd: read-out: Vdss; for Fraction of absorption (BA): oral vs i.v., Equation 1, rats
Protocol: Rats were fasted for at least 18 h prior to drug administration. Anaesthesia was induced by i.p. injection of urethane (0.15 g/100 g body weight). The rats were put under a heating lamp to maintain body temperature.
The HPLC system used in the assay of biological samples consisted of an autosampler (AS950, Jasco, Tokyo, Japan), a Waters Model 600E solvent delivery pump (Millipore, Milford, MA, USA), a Model LC-4C electrochemical detector with a glassy-carbon electrode (Bioanalytical Systems, Inc., West Lafayette, IN, USA), and an integrator (Macintosh LC II with Macintegrator I). A Nucleosil® 10 SA cationic ion-exchange column (10 μm, 300 × 4.0 mm, Macherey-Nagel, Düren, Germany) with a mobile phase comprising NaCl (50 mM) and Na2-EDTA (1.0 mM) in 0.1 M ammonium phosphate buffer (pH 2.0) at a flow rate of 2.0 ml/min was used for the elution of the samples. […] HPLC assay methods were validated by determining the precision and accuracy of intra-day and inter-day analysis of serum standards over a period of 6 days. The coefficients of variation for inter- and intraday assays were less than 15% for both compounds (n = 6).
According to the literature, the area under the plasma concentration-time profile (AUC) was calculated by log-linear trapezoidal rule. Plasma concentration after i.v. administration of drugs were also fitted to a […] model using PCNONLIN and Akeike's Information Criteria, sum of squared residuals, residual plot and correlation coefficient were use for determination of the compartment model. The residual area after the last observed data point was calculated as Clast/k, where Clast is the last observed concentration, and k is the corresponding terminal rate constant. Terminal half-life (t1/2) was estimated compartment model-independently. The fraction of absorption was calculated according to Equation 1.
(1) BA=AUCoral⋅koral/doseoral/AUCiv⋅kiv/doseiv×100%
Blood samples were collected from the carotid artery at time intervals of from 1 to 180 min. Heparin sodium (25 I.U./ml in 0.3 ml of saline) was added to blood samples, and were then centrifuged at 6,600 g for 5 min. Plasma was stored at -78°C until being analyzed. A 200 μl of the plasma sample in a 10 ml test tube was mixed with 500 μl of 1.0 M Tris buffer (pH 8.6, adjusted by EDTA-2Na^+) and 10 μl of 3,4-dihydroxybenzylamine (DHBA, 2 μg/ml) was added as internal standard. Alumina 100 mg was then added and then shake for 15 sec and the supernatant was decanted. The alumina was washed four times with 5 ml of water, and the adsorbed compounds on the alumina was eluted with 200 μl of an acidic solution (0.9 ml of glacial acetic acid in 4.0 ml of 1.0 M phosphate buffer). A 30 μl of the eluent was then analyzed by HPLC.

[5] = In situ single-pass jejunal perfusion; format: in vivo, rat; conditions: for Blood concentration: steady-state plasma concentration after jejunal perfusion, l-dopa detected in only one of three rats
Protocol: Literature procedure was followed for the preparation of perfusion solutions and the jejunal segments. To maximize the absorption and to prevent the test compounds from being oxidized during perfusion, the experiments were performed at pH 6.0 with 0.02% (w/v) ascorbic acid added as antioxidant and nitrogen gas was bubbled through for 10 min before each experiment. Perfusion solution was pumped through the jejunal segment at a flow rate of 0.2 ml/min by a syringe pump (Stoelting, KD Scientific, U.S.A.). The jejunal segment was pre-washed with drug-free buffer for 10 min before the drug solution was pumped in. Outlet tubing samples were collected every 10 min for 6 collection periods after water and solute transport reached steady-state. The dimensionless membrane permeability Pm* [28] was measured as indications for the disappearance rate of test compound from the intestine. Plasma samples were withdrawn from carotid artery.
The absorption of d-phenylglycine-l-dopa and l-dopa was compared in rats by in situ single-pass jejunal perfusion experiments. Amidon's dimensionless cross-membrane permeability (Pm*) was determined as a parameter of intestinal absorption. The steady-state plasma concentration was also determined (Table 1).

[6] = tested on: striatal dopamine; assay: Brain microdialysis of striatal dopamine after i.v. injection; format: in vivo, Sprague-Dawley rats; conditions: after i.v. injection 50 mg/kg
Protocol: Single dose d-phenylglycine-l-dopa (50 mg/kg in 2.5 mL of normal saline) was administered i. v. via femoral vein to anesthetized male Sprague-Dawley rats (280 - 320 g). The body temperature of the rats was maintained at 37°C with a heating pad throughout the experiment. The rat was immobilized in a stereotaxic frame (David Kopf Instruments, Tujunga, CA, USA), the skull was surgically exposed, and a hole was drilled with a trephine into the skull based on stereotaxic coordinates. The brain microdialysis system consisted of a CMA/100 microinjection pump (CMA, Stockholm, Sweden) and a microdialysis probe. The dialysis probes (3 mm in length) were made of silica capillary in a concentric design with their tips covered by dialysis membrane (Spectrum, 150 μm outer diameter with a cut-off at nominal molecular mass of 13000, Laguna Hills, CA, USA). The probe was placed into right striatum (0.2 mm anterior to bregma and 3.2 mm lateral to midline) and perfused with Ringer's solution (147 mM Na+; 2.2 mM Ca++; 4 mM K+; pH 7.0) at a flow-rate of 1 μl min^-1. The position of each probe was verified at the end of experiments. The dialysates was collected at 10 min intervals and aliquots of 10 μl was assayed by microbore HPLC. […]

[7] = oral, dose equivalent to 5.97 mg/kg l-dopa, rats

Compound | Inhibition of BBMV uptake of d-phenylglycine-l-dopa by added competitor [1] | AUC ([4]; iv) [ng·h/mL] | half-life ([4]; iv) [h] | clearance ([4]; iv) [mL/min/kg] | Vd ([4]; iv) [L/kg] | AUC ([4]; po) [ng·h/mL] | Tmax ([4]; po) [h] | half-life ([4]; po) [h] | Fraction of absorption (BA) [4] [%] | Clp [4, 7] [mL/min/kg] | Blood concentration [5] | further results
N[C@@H](Cc1ccccc1)C(=O)O [l-Phe] | less inhibited | – | – | – | – | – | – | – | – | – | – | –
NCC(=O)N1CCC[C@H]1C(=O)O [l-Gly-l-Pro] (H-Gly-Pro-OH) | significantly inhibited | – | – | – | – | – | – | – | – | – | – | –
NCC(=O)N[C@@H](Cc1ccccc1)C(=O)O [l-Gly-l-Phe, reference compound] (H-Gly-Phe-OH) | significantly inhibited | – | – | – | – | – | – | – | – | – | – | Recovery after incubation with intestinal mucosal suspension ([2]; 2 min of incubation): 50%
N[C@@H](Cc1ccc(O)c(O)c1)C(=O)O [l-dopa, reference compound] | – | 7660 | 1.69 ± 0.462 | 20 ± 20 | 1.22 ± 0.89 | 456 | 0.417 | 3.08 ± 0.77 | 0.87 ± 0.24 | 10 ± 0 | 1.24^a μg/ml | Reduction in rotation (mean ± SE %) [3]: 9.9 ± 1.4%
CC1=C(C(=O)O)N2C(=O)[C@@H](NC(=O)[C@H](N)C3=CCC=CC3)[C@H]2SC1 [cephradine] | significantly inhibited | – | – | – | – | – | – | – | – | – | – | –
N[C@@H](C(=O)N[C@@H](Cc1ccc(O)c(O)c1)C(=O)O)c1ccccc1 [d-phenylglycine-l-dopa] (H-[dPhg]-[Dopa]-OH) | – | 1040 | 4.23 ± 1.22 | 180 ± 60 | 11 ± 5.08 | 481 | 0.638 | 2.38 ± 0.395 | 27.58 ± 4.56 | 290 ± 100 | 64.6 ± 5.40 µg/mL | recovery at 90 min, 0.02 mg/ml ([2]; male, Wistar, rat, intestinal mucosa suspension, 90 min of incubation, read-out: Recovery after incubation with intestinal mucosal suspension): ~100%; Systemic bioavailability (AUC), times lower than that of l-dopa ([4]; i.v., rats): 7 times; Vdss [4, 7]: 35.7 ± 17.1 L/kg; Fraction of oral absorption, fold higher than that of l-dopa ([4]; rats, oral): 31 fold; Oral bioavailability, times higher than that of l-dopa ([4]; rats, oral): 31.7 times; Time at which striatal dopamine had not reached plateau [6]: > 3.5 h; Striatal dopamine level ([6]; anesthetized rats, dialysates at 10 min intervals): increased gradually; Steady-state plasma concentration after perfusion, molar ratio, higher than that of l-dopa ([5]; jejunal perfusion, rats): 31.1 fold; Molar ratio of blood concentration ([5]; steady-state, jejunal perfusion): 31.1
